pIC50: −log10 of the molar value.

The test deals with [35S]-TBPS binding, rat brain cortical membranes. Description: Steroid inhibition of [35S]-TBPS binding. Particulars: 3 nM [35S]-TBPS, in the presence of 5 mM GABA. Put shortly:
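Rat cortical P2 membranes incubated 90 min at room temperature with 3 nM [35S]-TBPS, […] and test compound (0.5% DMSO final) in NaCl/Na–K phosphate pH 7.4; nonspecific binding with […]. Filter-bound radioactivity counted; IC50 and Imax from nonlinear fits, mean ± SEM.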
As to `CC[C@@]1(O)CC[C@@]2(C)[C@H](CC[C@@H]3[C@@H]2CC[C@]2(C)[C@@H]([C@H](C)Cn4ccc(C#N)n4)CC[C@@H]32)C1` [Example 62, 1-((S)-2-((3R,5R,8R,9S,10S,13S,14S,17R)-3-ethyl-3-hydroxy-10,13-dimethylhexadecahydro-1H-cyclopenta[a]phenanthren-17-yl)propyl)-1H-pyrazole-3-carbonitrile], the pIC50 was more than 7.00.
On to `CC[C@@]1(O)CC[C@@]2(C)[C@H](CC[C@@H]3[C@@H]2CC[C@]2(C)[C@@H]([C@@H](C)Cn4nccc4C#N)CC[C@@H]32)C1` [Example 63, 1-((R)-2-((3R,5R,8R,9S,10S,13S,14S,17R)-3-ethyl-3-hydroxy-10,13-dimethylhexadecahydro-1H-cyclopenta[a]phenanthren-17-yl)propyl)-1H-pyrazole-5-carbonitrile], for which the pIC50 was more than 7.00.
For `CC[C@@]1(O)CC[C@@]2(C)[C@H](CC[C@@H]3[C@@H]2CC[C@]2(C)[C@@H]([C@H](C)Cn4nccc4C#N)CC[C@@H]32)C1` [Example 64, 1-((S)-2-((3R,5R,8R,9S,10S,13S,14S,17R)-3-ethyl-3-hydroxy-10,13-dimethylhexadecahydro-1H-cyclopenta[a]phenanthren-17-yl)propyl)-1H-pyrazole-5-carbonitrile], the pIC50 is more than 7.00.
As for `CCC[C@@]1(O)CC[C@H]2[C@H](CC[C@@H]3[C@@H]2CC[C@]2(C)[C@@H]([C@H](C)Cn4cc(C#N)cn4)CC[C@@H]32)C1` [Example 66, 1-((S)-2-((3R,5R,8R,9R,10S,13S,14S,17R)-3-hydroxy-13-methyl-3-propylhexadecahydro-1H-cyclopenta[a]phenanthren-17-yl)propyl)-1H-pyrazole-4-carbonitrile], the pIC50 was more than 7.00.
Turning to `CCOC[C@@]1(O)CC[C@H]2[C@H](CC[C@@H]3[C@@H]2CC[C@]2(C)[C@@H]([C@@H](C)NS(=O)(=O)c4ccc(C#N)cc4)CC[C@@H]32)C1` [Example 67, 4-cyano-N—((R)-1-((3R,5R,8R,9R,10S,13S,14S,17S)-3-(ethoxymethyl)-3-hydroxy-13-methylhexadecahydro-1H-cyclopenta[a]phenanthren-17-yl)ethyl)benzenesulfonamide], the pIC50 was more than 7.00.
In the case of `CCOC[C@@]1(O)CC[C@H]2[C@H](CC[C@@H]3[C@@H]2CC[C@]2(C)[C@@H]([C@@H](C)N(C)S(=O)(=O)c4ccc(C#N)cc4)CC[C@@H]32)C1` [Example 68, 4-cyano-N—((R)-1-((3R,5R,8R,9R,10S,13S,14S,17S)-3-(ethoxymethyl)-3-hydroxy-13-methylhexadecahydro-1H-cyclopenta[a]phenanthren-17-yl)ethyl)-N-methylbenzenesulfonamide], the pIC50 is more than 7.00.
Regarding `CCOC[C@@]1(O)CC[C@H]2[C@H](CC[C@@H]3[C@@H]2CC[C@]2(C)[C@@H]([C@@H](C)NS(=O)(=O)c4cccc(C#N)c4)CC[C@@H]32)C1` [Example 69], the pIC50 is more than 7.00.
With `CCOC[C@@]1(O)CC[C@H]2[C@H](CC[C@@H]3[C@@H]2CC[C@]2(C)[C@@H]([C@@H](C)N(C)S(=O)(=O)c4cccc(C#N)c4)CC[C@@H]32)C1` [Example 70] the figure was more than 7.00.
For `CCOC[C@@]1(O)CC[C@H]2[C@H](CC[C@@H]3[C@@H]2CC[C@]2(C)[C@@H]([C@@H](C)NS(=O)(=O)c4cccc(C#N)n4)CC[C@@H]32)C1` [Example 71], the pIC50 was 6.00 to 7.00.
With `CCOC[C@@]1(O)CC[C@H]2[C@H](CC[C@@H]3[C@@H]2CC[C@]2(C)[C@@H]([C@@H](C)NS(=O)(=O)c4ccc(C#N)cn4)CC[C@@H]32)C1` [Example 73], the pIC50 is more than 7.00.
As to `COC[C@@]1(O)CC[C@H]2[C@H](CC[C@@H]3[C@@H]2CC[C@]2(C)[C@@H]([C@@H](C)NS(=O)(=O)c4cccc(C#N)n4)CC[C@@H]32)C1` [Example 75], the pIC50 was more than 7.00.
Consider `C[C@@]1(O)CC[C@H]2[C@H](CC[C@@H]3[C@@H]2CC[C@]2(C)[C@@H](CC(=O)Nc4ccccc4)CC[C@@H]32)C1` [Example 76, 2-((3R,5R,8R,9R,10S,13R,14S,17R)-3-hydroxy-3,13-dimethylhexadecahydro-1H-cyclopenta[a]phenanthren-17-yl)-N-phenylacetamide], for which the pIC50 is 6.00 to 7.00.
Take `CCOC[C@@]1(O)CC[C@@]2(C)[C@H](CC[C@@H]3[C@@H]2CC[C@]2(C)[C@@H]([C@@H](C)NS(=O)(=O)c4ccc(C#N)cn4)CC[C@@H]32)C1` [Example 77, 5-cyano-N—((R)-1-((3R,5R,8R,9S,10S,13S,14S,17S)-3-(ethoxymethyl)-3-hydroxy-10,13-dimethylhexadecahydro-1H-cyclopenta[a]phenanthren-17-yl)ethyl)pyridine-2-sulfonamide]: the negative-log IC50 (pIC50) is more than 7.00.
For `CCOC[C@@]1(O)CC[C@@]2(C)[C@H](CC[C@@H]3[C@@H]2CC[C@]2(C)[C@@H]([C@@H](C)N(C)S(=O)(=O)c4ccc(C#N)cn4)CC[C@@H]32)C1` [Example 78, 5-cyano-N—((R)-1-((3R,5R,8R,9S,10S,13S,14S,17S)-3-(ethoxymethyl)-3-hydroxy-10,13-dimethylhexadecahydro-1H-cyclopenta[a]phenanthren-17-yl)ethyl)-N-methylpyridine-2-sulfonamide], the pIC50 is more than 7.00.
For the compound `COC[C@@]1(O)CC[C@H]2[C@H](CC[C@@H]3[C@@H]2CC[C@]2(C)[C@@H](CCn4ccc(C#N)n4)CC[C@@H]32)C1` [Example 87, 1-(2-((3R,5R,8R,9R,10S,13R,14S,17R)-3-hydroxy-3-(methoxymethyl)-13-methylhexadecahydro-1H-cyclopenta[a]phenanthren-17-yl)ethyl)-1H-pyrazole-3-carbonitrile], the pIC50 was more than 7.00.
Consider `COC[C@@]1(O)CC[C@H]2[C@H](CC[C@@H]3[C@@H]2CC[C@]2(C)[C@@H](CCn4nccc4C#N)CC[C@@H]32)C1` [Example 88, 1-(2-((3R,5R,8R,9R,10S,13R,14S,17R)-3-hydroxy-3-(methoxymethyl)-13-methylhexadecahydro-1H-cyclopenta[a]phenanthren-17-yl)ethyl)-1H-pyrazole-5-carbonitrile], for which the pIC50 was more than 7.00.
Regarding `CCC[C@@]1(O)CC[C@H]2[C@H](CC[C@@H]3[C@@H]2CC[C@]2(C)[C@@H]([C@@H](C)Nc4ccc(C#N)cn4)CC[C@@H]32)C1` [Example 90, 6-(((R)-1-((3R,5R,8R,9R,10S,13S,14S,17S)-3-hydroxy-13-methyl-3-propylhexadecahydro-1H-cyclopenta[a]phenanthren-17-yl)ethyl)amino)nicotinonitrile], the pIC50 was 6.00 to 7.00.
Turning to `CCC[C@@]1(O)CC[C@H]2[C@H](CC[C@@H]3[C@@H]2CC[C@]2(C)[C@@H]([C@@H](C)Nc4ccc(-n5ccc(C)n5)nc4C)CC[C@@H]32)C1` [Example 91, (3R,5R,8R,9R,10S,13S,14S,17S)-13-methyl-17-((R)-1-((2-methyl-6-(3-methyl-1H-pyrazol-1-yl)pyridin-3-yl)amino)ethyl)-3-propylhexadecahydro-1H-cyclopenta[a]phenanthren-3-ol], the pIC50 was 6.00 to 7.00.
As to `COC[C@@]1(O)CC[C@H]2[C@H](CC[C@@H]3[C@@H]2CC[C@]2(C)[C@@H]([C@@H](C)Cn4cc(C#N)cn4)CC[C@@H]32)C1` [Example 92, 1-((R)-2-((3R, 5R, 8R, 9R, 10S, 13S, 14S, 17R)-3-hydroxy-3-(methoxymethyl)-13-methylhexadecahydro-1H-cyclopenta[a]phenanthren-17-yl)propyl)-1H-pyrazole-4-carbonitrile], the pIC50 was more than 7.00.
As to `C[C@@H](NC(=O)c1ccccn1)[C@H]1CC[C@H]2[C@@H]3CC[C@@H]4C[C@](C)(O)CC[C@@H]4[C@H]3CC[C@]12C` [Example 100], the pIC50 was 6.00 to 7.00.
For `C[C@H](NC(=O)c1ccccn1)[C@H]1CC[C@H]2[C@@H]3CC[C@@H]4C[C@](C)(O)CC[C@@H]4[C@H]3CC[C@]12C` [Example 101], the pIC50 is 5.00 to 6.00.
In the case of `C[C@H](NC(=O)c1ccccc1F)[C@H]1CC[C@H]2[C@@H]3CC[C@@H]4C[C@](C)(O)CC[C@@H]4[C@H]3CC[C@]12C` [Example 102], the pIC50 was 5.00 to 6.00.
With `C[C@@H](NC(=O)c1ccccc1F)[C@H]1CC[C@H]2[C@@H]3CC[C@@H]4C[C@](C)(O)CC[C@@H]4[C@H]3CC[C@]12C` [Example 103] the figure was more than 7.00.
`COc1cccc(C(=O)N[C@H](C)[C@H]2CC[C@H]3[C@@H]4CC[C@@H]5C[C@](C)(O)CC[C@@H]5[C@H]4CC[C@]23C)c1` [Example 104]: the pIC50 is more than 7.00.
Turning to `COc1cccc(C(=O)N[C@@H](C)[C@H]2CC[C@H]3[C@@H]4CC[C@@H]5C[C@](C)(O)CC[C@@H]5[C@H]4CC[C@]23C)c1` [Example 105], the pIC50 is 5.00 to 6.00.
With `COc1ccc(C(=O)N[C@H](C)[C@H]2CC[C@H]3[C@@H]4CC[C@@H]5C[C@](C)(O)CC[C@@H]5[C@H]4CC[C@]23C)cc1` [Example 106] the figure was 6.00 to 7.00; with `COc1ccc(C(=O)N[C@@H](C)[C@H]2CC[C@H]3[C@@H]4CC[C@@H]5C[C@](C)(O)CC[C@@H]5[C@H]4CC[C@]23C)cc1` [Example 107], 5.00 to 6.00.
Regarding `C[C@@H](NC(=O)c1ccc(C#N)cc1)[C@H]1CC[C@H]2[C@@H]3CC[C@@H]4C[C@](C)(O)CC[C@@H]4[C@H]3CC[C@]12C` [Example 108], the pIC50 was 6.00 to 7.00.
On to `C[C@@H](NC(=O)c1cccc(C#N)c1)[C@H]1CC[C@H]2[C@@H]3CC[C@@H]4C[C@](C)(O)CC[C@@H]4[C@H]3CC[C@]12C` [Example 109], for which the pIC50 was more than 7.00.

For orientation: pIC50 means the negative decadic logarithm of the IC50, by convention in mol/L.
